Test results from ChEMBL document CHEMBL5154740, “Novel Aurora A and Protein Kinase C (α, β1, β2, and θ) Multitarget Inhibitors: Impact of Selenium Atoms on the Potency and Selectivity” (J Med Chem, 2022).
Calls of active or inactive are those of the source. No cut-off for these calls is given here.

Columns and labels:
[1] = molecular target: Mast/stem cell growth factor receptor Kit (Homo sapiens) (UniProt P10721); test: Inhibition of KIT (unknown origin) at 50 nM by Z'LYTE screening method relative to control
Mast/stem cell growth factor receptor Kit (Homo sapiens), sequence (P10721 whole entry): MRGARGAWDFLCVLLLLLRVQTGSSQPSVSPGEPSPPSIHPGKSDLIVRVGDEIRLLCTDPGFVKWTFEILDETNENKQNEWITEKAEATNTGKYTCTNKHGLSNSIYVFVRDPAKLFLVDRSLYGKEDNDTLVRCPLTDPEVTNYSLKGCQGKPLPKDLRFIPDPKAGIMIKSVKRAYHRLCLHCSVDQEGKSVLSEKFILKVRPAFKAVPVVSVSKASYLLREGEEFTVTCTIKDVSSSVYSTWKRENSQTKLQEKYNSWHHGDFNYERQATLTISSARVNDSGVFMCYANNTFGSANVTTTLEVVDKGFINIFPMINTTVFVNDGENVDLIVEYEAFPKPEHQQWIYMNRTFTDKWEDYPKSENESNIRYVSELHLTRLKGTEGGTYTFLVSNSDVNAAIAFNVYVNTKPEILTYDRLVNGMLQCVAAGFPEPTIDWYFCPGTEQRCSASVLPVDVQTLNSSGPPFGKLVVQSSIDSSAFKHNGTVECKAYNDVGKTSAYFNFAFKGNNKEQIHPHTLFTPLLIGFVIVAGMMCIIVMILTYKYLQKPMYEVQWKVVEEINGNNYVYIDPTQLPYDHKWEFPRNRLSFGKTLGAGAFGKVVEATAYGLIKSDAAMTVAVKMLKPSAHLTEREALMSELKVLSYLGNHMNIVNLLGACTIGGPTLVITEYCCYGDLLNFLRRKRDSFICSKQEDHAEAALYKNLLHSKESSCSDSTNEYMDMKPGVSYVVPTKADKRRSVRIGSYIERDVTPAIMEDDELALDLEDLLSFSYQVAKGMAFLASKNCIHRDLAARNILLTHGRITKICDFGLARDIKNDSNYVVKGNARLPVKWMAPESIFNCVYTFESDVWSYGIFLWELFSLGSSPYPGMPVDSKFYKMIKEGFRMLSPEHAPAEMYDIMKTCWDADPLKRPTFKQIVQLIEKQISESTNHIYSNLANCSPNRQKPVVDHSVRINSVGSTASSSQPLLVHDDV

[2] = molecular target: T1, Serine/threonine-protein kinase TBK1 (Homo sapiens) (UniProt Q9UHD2); test: Inhibition of TBK1 (unknown origin) at 50 nM by Z'LYTE screening method relative to control
T1 sequence (whole entry): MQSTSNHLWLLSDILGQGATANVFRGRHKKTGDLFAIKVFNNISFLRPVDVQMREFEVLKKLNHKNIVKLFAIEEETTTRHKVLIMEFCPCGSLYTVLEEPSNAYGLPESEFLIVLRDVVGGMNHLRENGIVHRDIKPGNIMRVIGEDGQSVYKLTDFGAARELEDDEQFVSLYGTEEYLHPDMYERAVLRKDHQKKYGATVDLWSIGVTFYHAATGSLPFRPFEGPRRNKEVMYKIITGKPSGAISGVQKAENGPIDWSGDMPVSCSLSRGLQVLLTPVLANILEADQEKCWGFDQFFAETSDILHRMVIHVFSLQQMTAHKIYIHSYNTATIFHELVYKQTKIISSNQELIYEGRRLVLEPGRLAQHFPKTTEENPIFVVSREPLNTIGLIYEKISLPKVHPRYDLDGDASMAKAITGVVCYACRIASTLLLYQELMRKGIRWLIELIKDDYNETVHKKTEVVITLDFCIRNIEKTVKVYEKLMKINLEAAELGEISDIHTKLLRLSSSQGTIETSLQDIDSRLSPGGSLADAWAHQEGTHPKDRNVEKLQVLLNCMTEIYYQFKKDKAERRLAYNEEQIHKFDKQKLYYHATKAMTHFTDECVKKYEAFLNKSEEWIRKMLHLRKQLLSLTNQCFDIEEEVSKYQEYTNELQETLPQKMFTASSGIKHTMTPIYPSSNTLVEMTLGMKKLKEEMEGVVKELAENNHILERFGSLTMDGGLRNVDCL

[3] = molecular target: T2, TGF-beta receptor type-1 (Homo sapiens) (UniProt P36897); test: Inhibition of TGFBR1 (unknown origin) at 50 nM by Z'LYTE screening method relative to control
T2 sequence (whole entry): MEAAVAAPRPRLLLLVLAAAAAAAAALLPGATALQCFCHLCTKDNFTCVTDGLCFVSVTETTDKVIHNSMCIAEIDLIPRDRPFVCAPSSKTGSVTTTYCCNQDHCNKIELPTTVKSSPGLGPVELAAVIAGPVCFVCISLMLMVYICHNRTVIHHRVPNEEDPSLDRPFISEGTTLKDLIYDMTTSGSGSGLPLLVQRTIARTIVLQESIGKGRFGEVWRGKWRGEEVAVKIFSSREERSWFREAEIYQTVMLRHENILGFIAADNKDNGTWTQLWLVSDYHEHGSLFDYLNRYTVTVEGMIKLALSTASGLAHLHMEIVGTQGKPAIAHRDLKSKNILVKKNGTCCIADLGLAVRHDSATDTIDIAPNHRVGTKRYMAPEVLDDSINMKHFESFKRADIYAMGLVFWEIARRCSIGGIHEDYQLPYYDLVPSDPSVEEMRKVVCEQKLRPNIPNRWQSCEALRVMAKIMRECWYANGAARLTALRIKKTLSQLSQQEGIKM

[4] = molecular target: Cyclin-dependent kinase 5/CDK5 activator 1 (Homo sapiens) (UniProt Q00535+Q15078); test: Inhibition of CDK5/p35 (unknown origin) at 50 nM by Z'LYTE screening method relative to control; assay type: protein-complex assay
Cyclin-dependent kinase 5/CDK5 activator 1 (Homo sapiens), sequence (Q00535 whole entry): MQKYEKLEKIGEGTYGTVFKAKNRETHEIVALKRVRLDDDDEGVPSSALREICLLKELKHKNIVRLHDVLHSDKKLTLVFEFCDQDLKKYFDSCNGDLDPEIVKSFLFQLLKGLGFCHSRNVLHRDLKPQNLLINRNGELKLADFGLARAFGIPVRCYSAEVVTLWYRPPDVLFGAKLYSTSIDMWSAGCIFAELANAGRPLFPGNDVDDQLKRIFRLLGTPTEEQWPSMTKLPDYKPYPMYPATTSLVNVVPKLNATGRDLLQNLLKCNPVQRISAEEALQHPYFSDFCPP
Cyclin-dependent kinase 5/CDK5 activator 1 (Homo sapiens), sequence (Q15078 99-307 partner limits assumed): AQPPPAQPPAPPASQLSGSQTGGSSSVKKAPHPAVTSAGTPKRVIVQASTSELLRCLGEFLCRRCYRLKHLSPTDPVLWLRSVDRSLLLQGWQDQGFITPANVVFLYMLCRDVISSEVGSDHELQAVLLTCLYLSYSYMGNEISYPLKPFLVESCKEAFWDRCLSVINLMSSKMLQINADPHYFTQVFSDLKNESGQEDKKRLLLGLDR

[5] = molecular target: Calcium/calmodulin-dependent protein kinase type 1D (Homo sapiens) (UniProt Q8IU85); test: Inhibition of CAMK1 delta (unknown origin) at 50 nM by Z'LYTE screening method relative to control
Calcium/calmodulin-dependent protein kinase type 1D (Homo sapiens), sequence (Q8IU85 whole entry, looked up): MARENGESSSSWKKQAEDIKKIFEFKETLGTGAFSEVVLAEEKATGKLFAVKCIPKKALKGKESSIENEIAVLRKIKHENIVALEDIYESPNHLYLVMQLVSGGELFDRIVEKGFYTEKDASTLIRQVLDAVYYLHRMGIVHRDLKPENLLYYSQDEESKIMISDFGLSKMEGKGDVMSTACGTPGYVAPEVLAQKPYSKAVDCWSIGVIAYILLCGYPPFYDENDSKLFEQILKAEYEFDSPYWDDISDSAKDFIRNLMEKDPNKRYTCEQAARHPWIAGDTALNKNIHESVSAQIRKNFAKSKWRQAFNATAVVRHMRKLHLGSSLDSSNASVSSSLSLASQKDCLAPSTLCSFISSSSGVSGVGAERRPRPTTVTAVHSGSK

[6] = molecular target: Serine/threonine-protein kinase B-raf (Homo sapiens) (UniProt P15056); test: Inhibition of BRaf (unknown origin) at 50 nM by Z'LYTE screening method relative to control
Serine/threonine-protein kinase B-raf (Homo sapiens), sequence (P15056 whole entry): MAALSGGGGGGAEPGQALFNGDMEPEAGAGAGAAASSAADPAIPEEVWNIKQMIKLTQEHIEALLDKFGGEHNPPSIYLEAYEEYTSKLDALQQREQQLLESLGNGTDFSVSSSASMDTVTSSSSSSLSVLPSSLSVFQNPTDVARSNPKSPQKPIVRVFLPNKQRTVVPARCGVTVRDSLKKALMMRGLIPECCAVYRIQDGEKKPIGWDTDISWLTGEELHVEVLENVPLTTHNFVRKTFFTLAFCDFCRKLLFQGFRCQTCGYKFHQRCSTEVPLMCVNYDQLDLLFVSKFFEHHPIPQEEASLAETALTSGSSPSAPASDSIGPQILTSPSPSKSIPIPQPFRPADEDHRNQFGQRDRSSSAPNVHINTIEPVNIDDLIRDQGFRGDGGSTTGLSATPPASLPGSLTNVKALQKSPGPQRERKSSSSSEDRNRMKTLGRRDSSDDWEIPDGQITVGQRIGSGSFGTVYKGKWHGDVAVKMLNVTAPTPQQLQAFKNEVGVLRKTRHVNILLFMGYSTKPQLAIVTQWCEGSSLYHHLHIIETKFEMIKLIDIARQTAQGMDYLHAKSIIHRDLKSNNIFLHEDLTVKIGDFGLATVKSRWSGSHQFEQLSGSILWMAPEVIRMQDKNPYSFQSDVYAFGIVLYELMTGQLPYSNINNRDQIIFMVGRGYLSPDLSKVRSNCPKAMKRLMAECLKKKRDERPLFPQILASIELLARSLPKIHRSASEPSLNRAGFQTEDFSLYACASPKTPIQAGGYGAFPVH

[7] = molecular target: 3-phosphoinositide-dependent protein kinase 1 (Homo sapiens) (UniProt O15530); test: Inhibition of PDK1 (unknown origin) at 50 nM by Z'LYTE screening method relative to control
[8] = molecular target: Tyrosine-protein kinase JAK2 (Homo sapiens) (UniProt O60674); test: Inhibition of JAK2 (unknown origin) at 50 nM by Z'LYTE screening method relative to control
Tyrosine-protein kinase JAK2 (Homo sapiens), sequence (O60674 whole entry): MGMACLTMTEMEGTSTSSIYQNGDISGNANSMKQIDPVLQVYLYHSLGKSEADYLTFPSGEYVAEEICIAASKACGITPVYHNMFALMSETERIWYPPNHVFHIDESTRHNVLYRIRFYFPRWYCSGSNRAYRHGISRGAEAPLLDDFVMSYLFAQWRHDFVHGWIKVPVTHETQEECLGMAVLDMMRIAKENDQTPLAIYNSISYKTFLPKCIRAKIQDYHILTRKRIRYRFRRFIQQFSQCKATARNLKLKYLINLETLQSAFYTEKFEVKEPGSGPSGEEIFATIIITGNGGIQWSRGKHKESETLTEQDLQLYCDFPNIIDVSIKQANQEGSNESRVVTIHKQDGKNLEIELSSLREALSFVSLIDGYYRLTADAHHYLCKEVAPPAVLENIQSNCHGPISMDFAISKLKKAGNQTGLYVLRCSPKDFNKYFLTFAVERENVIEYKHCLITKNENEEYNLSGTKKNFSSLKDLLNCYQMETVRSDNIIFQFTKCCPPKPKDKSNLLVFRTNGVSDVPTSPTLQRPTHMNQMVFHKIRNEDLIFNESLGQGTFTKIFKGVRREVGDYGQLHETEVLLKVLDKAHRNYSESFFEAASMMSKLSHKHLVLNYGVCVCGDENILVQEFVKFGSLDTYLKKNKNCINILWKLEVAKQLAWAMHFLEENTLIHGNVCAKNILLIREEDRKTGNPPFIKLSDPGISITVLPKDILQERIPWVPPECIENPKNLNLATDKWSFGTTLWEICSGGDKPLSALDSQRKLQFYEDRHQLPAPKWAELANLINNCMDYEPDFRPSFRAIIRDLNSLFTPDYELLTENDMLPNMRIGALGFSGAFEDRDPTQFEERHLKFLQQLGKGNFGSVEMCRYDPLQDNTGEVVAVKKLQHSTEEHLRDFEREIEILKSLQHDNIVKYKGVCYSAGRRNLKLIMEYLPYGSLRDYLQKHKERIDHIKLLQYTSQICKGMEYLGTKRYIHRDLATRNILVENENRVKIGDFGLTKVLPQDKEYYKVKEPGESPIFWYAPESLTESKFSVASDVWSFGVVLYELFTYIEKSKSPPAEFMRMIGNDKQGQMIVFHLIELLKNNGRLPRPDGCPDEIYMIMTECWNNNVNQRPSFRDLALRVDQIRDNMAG

[9] = molecular target: T3, Inhibitor of nuclear factor kappa-B kinase subunit beta (Homo sapiens) (UniProt O14920); test: Inhibition of IKKbeta (unknown origin) at 50 nM by Z'LYTE screening method relative to control
T3 sequence (whole entry): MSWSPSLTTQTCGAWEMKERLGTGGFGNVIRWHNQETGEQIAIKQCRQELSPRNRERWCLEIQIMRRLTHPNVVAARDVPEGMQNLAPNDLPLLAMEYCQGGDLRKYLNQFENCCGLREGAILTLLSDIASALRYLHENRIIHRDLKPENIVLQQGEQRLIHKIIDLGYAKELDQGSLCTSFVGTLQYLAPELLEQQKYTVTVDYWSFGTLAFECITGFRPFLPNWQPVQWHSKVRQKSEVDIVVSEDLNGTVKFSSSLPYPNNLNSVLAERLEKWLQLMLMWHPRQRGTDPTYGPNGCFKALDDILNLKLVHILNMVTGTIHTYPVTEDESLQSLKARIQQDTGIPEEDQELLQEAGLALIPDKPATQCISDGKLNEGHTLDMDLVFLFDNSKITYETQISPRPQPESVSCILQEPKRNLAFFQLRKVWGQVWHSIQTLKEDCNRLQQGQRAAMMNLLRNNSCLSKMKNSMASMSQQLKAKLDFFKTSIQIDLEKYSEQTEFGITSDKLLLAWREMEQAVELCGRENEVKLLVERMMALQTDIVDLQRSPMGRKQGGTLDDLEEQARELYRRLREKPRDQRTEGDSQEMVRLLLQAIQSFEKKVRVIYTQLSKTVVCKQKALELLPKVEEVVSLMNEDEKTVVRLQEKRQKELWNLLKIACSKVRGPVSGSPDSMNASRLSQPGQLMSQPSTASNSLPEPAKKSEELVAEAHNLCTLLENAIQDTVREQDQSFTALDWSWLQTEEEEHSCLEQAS

[10] = molecular target: Platelet-derived growth factor receptor alpha (Homo sapiens) (UniProt P16234); test: Inhibition of PDGFRalpha (unknown origin) at 50 nM by Z'LYTE screening method relative to control
Platelet-derived growth factor receptor alpha (Homo sapiens), sequence (P16234 whole entry): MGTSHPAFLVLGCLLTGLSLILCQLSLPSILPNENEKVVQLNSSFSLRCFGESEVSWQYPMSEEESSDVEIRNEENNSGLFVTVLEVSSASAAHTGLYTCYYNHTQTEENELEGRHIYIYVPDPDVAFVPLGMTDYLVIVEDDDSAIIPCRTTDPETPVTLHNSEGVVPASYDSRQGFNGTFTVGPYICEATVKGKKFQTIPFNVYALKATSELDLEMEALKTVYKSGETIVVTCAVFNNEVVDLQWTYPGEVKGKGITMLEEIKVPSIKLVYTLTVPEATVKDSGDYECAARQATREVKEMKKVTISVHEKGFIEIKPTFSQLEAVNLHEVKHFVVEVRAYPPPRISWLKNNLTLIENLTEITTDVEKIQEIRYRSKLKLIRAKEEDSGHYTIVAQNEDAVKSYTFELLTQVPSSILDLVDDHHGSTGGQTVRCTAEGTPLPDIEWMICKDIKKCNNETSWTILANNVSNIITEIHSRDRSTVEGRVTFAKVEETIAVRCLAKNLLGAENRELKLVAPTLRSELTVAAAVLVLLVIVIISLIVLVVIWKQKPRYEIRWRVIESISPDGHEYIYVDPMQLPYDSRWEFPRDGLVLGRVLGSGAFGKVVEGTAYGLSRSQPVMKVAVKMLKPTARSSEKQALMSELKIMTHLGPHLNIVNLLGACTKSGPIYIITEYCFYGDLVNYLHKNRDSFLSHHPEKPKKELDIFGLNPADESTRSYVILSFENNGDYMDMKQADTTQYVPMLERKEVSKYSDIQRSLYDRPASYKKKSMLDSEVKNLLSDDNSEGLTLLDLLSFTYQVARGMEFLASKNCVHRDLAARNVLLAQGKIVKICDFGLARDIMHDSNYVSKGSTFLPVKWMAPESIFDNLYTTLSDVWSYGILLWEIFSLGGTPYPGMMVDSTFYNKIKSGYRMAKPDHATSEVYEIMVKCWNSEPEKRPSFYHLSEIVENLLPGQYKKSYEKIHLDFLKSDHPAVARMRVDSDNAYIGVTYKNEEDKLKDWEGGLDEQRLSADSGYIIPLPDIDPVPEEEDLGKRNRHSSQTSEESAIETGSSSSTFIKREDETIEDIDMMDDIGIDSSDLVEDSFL

MDA-MB-231 = test: Inhibition of clonogenicity in human MDA-MB-231/M cells assessed as reduction in colony formation incubated for 7 days by crystal violet staining based analysis; assay type: functional, cell-based; details: time 7.0 day
[11] = Toxicity in BALB/c mouse implanted with mouse 4T1 cells assessed as loss of body weight at 10 mg/kg, po administered 3 times a week for 30 days; assay type: organism-based; details: in vivo, 720 h, time 30 day
4T1 = test: Anti-metastasis activity in mouse 4T1 cells xenografted in BALB/c mouse assessed as lung metastases at 10 mg/kg, po administered 3 times a week for 30 days; assay type: functional, organism-based; details: time 30.0 day

inhibition [1] | inhibition [2] | inhibition [3] | inhibition [4] | inhibition [5] | inhibition [6] | inhibition [7] | inhibition [8] | inhibition [9] | inhibition [10] | SMILES | inhibition (MDA-MB-231) | Activity [11] | Activity (4T1)
1% | 0% | 11% | 2% | 1% | 10% | 0% | 17% | 6% | 16% | O=c1c2ccccc2[se]n1-c1nc(NC2CCCCC2)c2nc[nH]c2n1 |  |  | 
1% | 0% | 3% | 2% | 0% | 7% | 0% | 15% | 6% | 11% | O=C1c2ccccc2CN1c1nc(NC2CCCCC2)c2nc[nH]c2n1 |  | Toxic | 

SMILES | inhibition [1] | inhibition [2] | inhibition [3] | inhibition [4] | inhibition [5] | inhibition [6] | inhibition [7] | inhibition [8] | inhibition [9] | inhibition [10] | inhibition (MDA-MB-231) | Activity [11] | Activity (4T1)
O=c1c2ccccc2[se]n1-c1nc(N[C@H]2CC[Se]C2)c2nc[nH]c2n1 | 2% | 0% | 0% | 1% | 5% | 0% | 0% | 18% | 9% | 1% | Active | Non-Toxic | Active
